In paper PMC10862539, “Chelation of Mitochondrial Iron as an Antiparasitic Strategy” (ACS Infectious Diseases, 2024):
Read-outs that look alike come from different tables or passages of the source.

Columns and labels:
L. mexicana (amastigote) = experiment: Drug sensitivity assay, axenic L. mexicana amastigote (flow cytometry); assay type: cell-based, Leishmania mexicana; settings: for EC50: Leishmania mexicana
Description: (§1) All organisms were cultivated according to the conditions summarized in Table S2, which also includes strain specifications. Dose–response curves were obtained by their cultivation on 96 well plates in a 2-fold series dilution of the appropriate drug, in a total volume of 200 μL (with the exception of P. falciparum, where the total volume was 100 μL). Iron supplementation was achieved by mixing the compound with Fe-NTA in an equimolar ratio prior to setting up the experiment. Results were plotted and processed using Prism 8.0 (GraphPad Software). A two-tailed unpaired t-test was performed to assess the significance of the difference between mitoDFO with and without added iron. Selectivity was calculated as the ratio of the average EC50 value for human fibroblasts to the average EC50 value for the appropriate pathogen. All data were obtained from a minimum of three independent biological replicates.

T. gambiense (BSF) = experiment: Drug sensitivity assay, T. gambiense bloodstream form (resazurine); assay type: cell-based, Trypanosoma gambiense
Description: as §1

C. albicans = experiment: Drug sensitivity assay, C. albicans (OD600); assay type: cell-based, Candida albicans
Description: as §1

G. intestinalis = experiment: Drug sensitivity assay, G. intestinalis (flow cytometry); assay type: cell-based
Description: as §1

C. neoformans = experiment: Drug sensitivity assay, C. neoformans (OD600); assay type: cell-based, Cryptococcus neoformans
Description: as §1

[1] = tested on: Trypanosoma brucei 427 bloodstream forms; experiment: T. brucei growth curves and doubling time (flow cytometry); assay type: cell-based
Description: Bloodstream T. brucei 427 cells were inoculated to a concentration of […] and incubated with the addition of mitoDFO (0.025 and 0.1 μM) or DFO (2.5 and 10 μM) in aerobic flasks in a total volume of 5 mL in 5% CO2 at 37 °C. Control with no compound was used to obtain reference values. At time points 24, 36, 48, and 72 h, a 20 μL sample was collected, diluted in growth medium, and measured on a Guava EasyCyte 8HT flow cytometer (Luminex) to assess concentration in previously experimentally prepared settings. The culture was simultaneously observed by light microscopy to confirm the cell viability. The growth curve was plotted by using Prism 8.0 (GraphPad Software). All conditions were measured in three biologically independent replicates. Doubling time was calculated between 24 and 48 h time points using the online calculator,[45] and each of the conditions was compared to the untreated culture using a two-tailed unpaired t-test.

P. falciparum = experiment: Drug sensitivity assay, P. falciparum (SYBR green I); assay type: cell-based, Plasmodium falciparum; settings: for EC50: Plasmodium falciparum
Description: as §1

[2] = tested on: cytosolic pyruvate kinase; experiment: Pyruvate kinase activity in cytosolic fraction of treated T. brucei 427; assay type: cell-based, Trypanosoma brucei; settings: 0.12 μM compound, 24 h
Description: T. brucei 427 bloodstream forms were preincubated for 24 h in appropriate conditions (0.12 μM mitoDFO, 0.12 μM DFO, and no addition) and harvested, and cytosolic and mitochondrial fractions were separated by digitonin fractionation as described previously.[46] Briefly, cells were spun down (1200 g, 15 min, 4 °C) and resuspended in SHE buffer (250 mM sucrose, 25 mM HEPES, 1 mM EDTA, pH 7.4), and protein concentration was measured using a BCA kit (Sigma-Aldrich). Subsequently, cells were transferred into HBSS (Sigma-Aldrich) and digitonin (Calbiochem) was added in the protein/digitonin ratio of 1/0.15 for 4 min and spun (21 000 g, 2 min, 4 °C). […] The activities of cytosolic pyruvate kinase and mitochondrial threonine dehydrogenase were assessed in all conditions using the spectrophotometric assay at […], as described in ref ([46]), and served both as markers of successful fraction preparation and to assess the effect of the studied compounds. Briefly, pyruvate kinase was measured in TEA buffer (0.1 M triethanolamine, 5 mM MgSO4, 50 mM KCl, pH 7.6) with added 2.8 mM phosphoenolpyruvate, 2 mM ADP, 0.3 mM NADH, and lactate dehydrogenase. Threonine dehydrogenase was measured in 0.2 M Tris–HCl buffer, pH 8.6, 0.25 KCl with 120 mM threonine, and 2.5 mM NAD^+. Fumarase was measured at […] in 2 mM Tris–HCl buffer, pH 7.5, with 20 mM malate.

L. major (promastigote) = experiment: Drug sensitivity assay, L. major promastigote (flow cytometry); assay type: cell-based
Description: as §1

T. brucei BSF cells = experiment: Sytox Green assay, percentage of live cells; assay type: cell-based, Trypanosoma brucei
Description: Sytox Green Assay to determine the percentage of live treated and untreated cells at selected time points. T. brucei BSF cells were seeded at a concentration of 2 × 10^5 cells/mL in 5 mL HMI-9 medium in aerobic cultivation flasks. Cells were treated with compounds at final concentration of 0,05 µM, 0,1 µM, 0,25 µM mitoDFO and 10 µM, 100 µM DFO. In addition, there was a group of untreated cells. At defined time points (24, 36, 48, and 72 h), 20 µL samples were collected from each flask. These samples were then diluted tenfold in fresh HMI-9 medium, reaching a final volume of 200 µL, with the addition of 2 µL SYTOX Green Dead Cell Stain (Invitrogen). Following a 30-minute incubation under standard growth conditions, the cells were analyzed using a Guava EasyCyte 8HT flow cyometer (Luminex flow) with detection at 504/523 nm. This entire procedure was conducted in biological triplicates.
Compound Concentration % of live cells

A. castellanii = experiment: Drug sensitivity assay, A. castellanii (flow cytometry); assay type: cell-based, Acanthamoeba castellanii
Description: as §1

CC(=O)N(O)CCCCCNC(=O)CCC(=O)N(O)CCCCCNC(=O)CCC(=O)N(O)CCCCCN(CCCCCCCCCC[P+](c1ccccc1)(c1ccccc1)c1ccccc1)CCCCCCCCCC[P+](c1ccccc1)(c1ccccc1)c1ccccc1 [mitoDFO]
selectivity (for −Fe) (L. mexicana (amastigote); EC50 human fibroblasts / EC50 L. mexicana (amastigote)): 6 | DFO/mitoDFO ratio (−Fe) (L. mexicana (amastigote); L. mexicana (amastigote)): >15.6 | mitoDFO EC50 ratio + Fe/–Fe (L. mexicana (amastigote); L. mexicana (amastigote)): 1.5 | EC50 (L. mexicana (amastigote); axenic monoculture, read-out: EC50 axenic Leishmania mexicana): 1560 ± 500 nM | EC50 (L. mexicana (amastigote); iron-free compound, L. mexicana (amastigote), 120 h, read-out: EC50 –Fe): 1600 ± 500 nM | EC50 (L. mexicana (amastigote); pre-treated with equimolar iron, L. mexicana (amastigote), 120 h, read-out: EC50 +Fe): 2400 ± 500 nM | selectivity (for −Fe) (T. gambiense (BSF); EC50 human fibroblasts / EC50 T. gambiense (BSF)): 49 | DFO/mitoDFO ratio (−Fe) (T. gambiense (BSF); T. gambiense (BSF)): 13.7 | mitoDFO EC50 ratio + Fe/–Fe (T. gambiense (BSF); T. gambiense (BSF)): 1.2 | EC50 (T. gambiense (BSF); Trypanosoma brucei, GAMBIENSE, 72 h, read-out: EC50 –Fe): 181 ± 43 nM | DFO/mitoDFO ratio (−Fe) (C. albicans; C. albicans): >27.8 | mitoDFO EC50 ratio + Fe/–Fe (C. albicans; C. albicans): 2.6 | EC50 (C. albicans; Candida albicans, 48 h, read-out: EC50 –Fe): 3600 ± 1700 nM | selectivity (for −Fe) (C. albicans; EC50 human fibroblasts / EC50 C. albicans): 2 | EC50 (G. intestinalis; Giardia duodenalis, 24 h, read-out: EC50 –Fe): > 50000 nM | effect on G. intestinalis (G. intestinalis; in words): not affected | DFO/mitoDFO ratio (−Fe) (C. neoformans; C. neoformans): >50 | mitoDFO EC50 ratio + Fe/–Fe (C. neoformans; C. neoformans): 2.1 | EC50 (C. neoformans; Cryptococcus neoformans, 72 h, read-out: EC50 –Fe): 2000 ± 500 nM | selectivity (for −Fe) (C. neoformans; EC50 human fibroblasts / EC50 C. neoformans): 4 | Average doubling time ([1]; 0.025 μM mitoDFO, calculated between 24 and 48 h): 8.07 h | cell proliferation (growth curve) ([1]; approximately half the EC50 concentration of the compound): does not affect cell proliferation | cell proliferation (growth curve) ([1]; twice the EC50 concentration): stops its growth | selectivity (for −Fe) (P. falciparum; EC50 human fibroblasts / EC50 P. falciparum): 27 | DFO/mitoDFO ratio (−Fe) (P. falciparum; P. falciparum): 38.0 | mitoDFO EC50 ratio + Fe/–Fe (P. falciparum; P. falciparum): 1.4 | EC50 (P. falciparum): 334 ± 10 nM | EC50 (P. falciparum; 48 h, read-out: EC50 –Fe): 330 ± 10 nM | pyruvate kinase activity [2]: no difference in activity | selectivity (for −Fe) (L. major (promastigote); EC50 human fibroblasts / EC50 L. major (promastigote)): 5 | DFO/mitoDFO ratio (−Fe) (L. major (promastigote); L. major (promastigote)): >13.2 | mitoDFO EC50 ratio + Fe/–Fe (L. major (promastigote); L. major (promastigote)): 4.8 | EC50 (L. major (promastigote); Leishmania major, 120 h, read-out: EC50 –Fe): 1900 ± 600 nM | % of live cells (T. brucei BSF cells; 0,1 µM mitoDFO, 24h): 99,1% | % of live cells (T. brucei BSF cells; 0,1 µM mitoDFO, 36h): 97,9% | % of live cells (T. brucei BSF cells; 0,1 µM mitoDFO, 48h): 66,2% | % of live cells (T. brucei BSF cells; 0,1 µM mitoDFO, 72h): 53,8% | % of live cells (T. brucei BSF cells; 0,05 µM mitoDFO, 24h): 98,6% | % of live cells (T. brucei BSF cells; 0,05 µM mitoDFO, 36h): 96,1% | % of live cells (T. brucei BSF cells; 0,05 µM mitoDFO, 48h): 62,1% | % of live cells (T. brucei BSF cells; 0,05 µM mitoDFO, 72h): 52,8% | % of live cells (T. brucei BSF cells; 0,25 µM mitoDFO, 24h): 94,4% | % of live cells (T. brucei BSF cells; 0,25 µM mitoDFO, 36h): 82,5% | % of live cells (T. brucei BSF cells; 0,25 µM mitoDFO, 48h): 70,2% | % of live cells (T. brucei BSF cells; 0,25 µM mitoDFO, 72h): 64,3% | cells alive (T. brucei BSF cells; 24 h incubation with up to 0.25 μM): more than 90% | living cells (T. brucei BSF cells; twice the EC50 concentration, 36 h): more than 95% | DFO/mitoDFO ratio (−Fe) (A. castellanii; A. castellanii): 11.1 | mitoDFO EC50 ratio + Fe/–Fe (A. castellanii; A. castellanii): 1.3 | selectivity (for −Fe) (A. castellanii; EC50 human fibroblasts / EC50 A. castellanii): 11
